How the values were obtained:
rat subcutaneous tissue = test: Topical tolerability in rat subcutaneous tissue; format: in vivo; design: key: 0: no response; 1: moderate response; 2: sharp response; 3: marked response; 4: extreme response; settings: 1 ml of 1% suspension s.c., arbitrary scale 0-4; for Irritation degree 4h: 4 hours after administration; for Irritation degree 24h: 24 hours after administration
Protocol: The test was carried out on rats using two different test procedures. The products were tested at 1% concentration. According to the first procedure, 1 ml of the test suspensions were injected subcutaneously (s.c.) in the side of animals. 4 or 24 hours following administration, the animals were sacrificed, and the degree of subcutaneous irriration estimated.
The presence of erythema, oedema and necrosis was assessed based on the following arbitrary rating scale • - 0 : no response • - 1 : moderate response • - 2 : sharp response • - 3 : marked response • - 4 : extreme response

[1] = tested on: acetic acid-induced peritoneal exudation; test: Antiexudative activity (acetic acid-induced peritoneal exudation); format: in vivo; settings: rat, 1 hour before i.p. 1% acetic acid
Protocol: The test was carried out in the rat. The products were orally administered 1 hour before the intraperitoneal injection of 0.5 ml of 1% acetic acid. Along with the irritant agent, 1 ml of 0,1% Blue Evans was injected i.v. to the rats. The same procedure as that described above was followed for collecting the peritoneal exudate and rating the irritation degree.

in vivo = settings: mouse, ip
Protocol: (§1) The test was carried out in the mouse. The products were administered by intraperitoneal injection. The death rate was assessed daily over a period of 14 days following treatment.

mouse = test: in vivo; settings: ip
Protocol: as §1

Staphylococcus aureus = format: cell-based; settings: ATCC6538P; Staphylococcus aureus ATCC 6538P
[2] = tested on: Staphylococcus epidermidis; format: cell-based; settings: Staphylococcus epidermidis BB 0223
Streptococcus faecalis = format: cell-based; settings: Enterococcus faecalis, ATCC8043; Streptococcus faecalis ATCC 8043
Streptococcus pyogenes = format: cell-based; settings: ATCC12380; Streptococcus pyogenes ATCC 12380
Bacillus subtilis = format: cell-based; settings: ATCC6633; Bacillus subtilis ATCC 6633
Sarcina lutea = format: cell-based; settings: Micrococcus luteus, ATCC9341; Sarcina lutea ATCC 9341
Bacillus antracis = format: cell-based
Escherichia coli = format: cell-based; settings: Escherichia coli K 12
Klebsiella pneumoniae = format: cell-based; settings: ATCC10031; Klebsiella pneumoniae ATCC 10031
Proteus vulgaris = format: cell-based; settings: ATCC6897; Proteus vulgaris ATCC 6897
Pseudomonas aeruginosa = format: cell-based; settings: ATCC14502; Pseudomonas aeruginosa ATCC 14502
[3] = tested on: Bordetella bronchiseptica; format: cell-based; settings: ATCC4617; Bordetella bronchiseptica ATCC 4617
Pseudomonas maltophilia = format: cell-based; settings: Stenotrophomonas maltophilia, ATCC13637; Pseudomonas maltophilia ATCC 13637
Candida albicans = format: cell-based; settings: ATCC10231; Candida albicans ATCC 10231
Candida utilis = format: cell-based; settings: Williopsis jadinii; Candida utilis BB 0173
Rhodotorula rubra = format: cell-based; settings: Rhodotorula rubra ISM 7198
Cryptococcus neoformans = format: cell-based; settings: Cryptococcus neoformans ISM 7182
Saccharomyces cerevisiae = format: cell-based; settings: Saccharomyces cerevisiae BB 0193
Aspergillus niger = format: cell-based; settings: ATCC9642; Aspergillus niger ATCC 9642
Penicillium funicolosum = format: cell-based; settings: ATCC9644; Penicillium funicolosum ATCC 9644
rat peritoneum = settings: in vivo, ip

SMILES	% Inhibition with respect to controls ([1]; 200 mg/kg orally)	% Inhibition with respect to controls ([1]; 400 mg/kg orally)	MIC (Staphylococcus aureus)	MIC [2]	MIC (Streptococcus faecalis)	MIC (Streptococcus pyogenes)	MIC (Bacillus subtilis)	MIC (Sarcina lutea)	MIC (Bacillus antracis)	MIC (Escherichia coli)	MIC (Klebsiella pneumoniae)	MIC (Proteus vulgaris)	MIC (Pseudomonas aeruginosa)	MIC [3]	MIC (Pseudomonas maltophilia)	MIC (Candida albicans)	MIC (Candida utilis)	MIC (Rhodotorula rubra)	MIC (Cryptococcus neoformans)	MIC (Saccharomyces cerevisiae)	also measured
CCCCCCCC[N+](C)(C)CCOC(=O)C(C)c1ccc(CC(C)C)cc1 (stereo not drawn) [AF 150, bromide of the ester of 2-N,N,N-dimethyl-octyl-amino-ethanol with p-isobutylphenyl-alpha-methylacetic acid]	37%	51%	≤ 5 µg/mL	10 µg/mL	20 µg/mL	20 µg/mL	10 µg/mL	≤ 5 µg/mL	10 µg/mL	80 µg/mL	10 µg/mL	10 µg/mL	10 µg/mL	10 µg/mL	40 µg/mL	≤ 5 µg/mL	≤ 5 µg/mL	≤ 5 µg/mL	≤ 5 µg/mL	≤ 5 µg/mL	Irritation degree 4h (rat subcutaneous tissue): 2; Irritation degree 24h (rat subcutaneous tissue): 1; mortality at 336 h (in vivo; 7.8 mg/kg): 0%; mortality at 336 h (in vivo; 15.6 mg/kg): 0%; mortality at 336 h (in vivo; 31.2 mg/kg): 100%; mortality at 336 h (in vivo; 62.5 mg/kg): 100%; mortality at 336 h (in vivo; 125 mg/kg): 83.3%; Mortality (mouse; 7.8 mg/kg): 0/6; Mortality (mouse; 31.2 mg/kg): 6/6; Mortality (mouse; 62.5 mg/kg): 6/6; Mortality (mouse; 125 mg/kg): 5/6; MIC (Aspergillus niger): 10 µg/mL; MIC (Penicillium funicolosum): 10 µg/mL; Percent increase in response with respect to controls (rat peritoneum): 185%
N=C(NCCCCCCNC(=N)NC(=N)Nc1ccc(Cl)cc1)NC(=N)Nc1ccc(Cl)cc1 [Chlorexidine, Chlorexidine gluconate, reference compound]	–	–	≤ 5 µg/mL	10 µg/mL	20 µg/mL	10 µg/mL	≤ 5 µg/mL	20 µg/mL	20 µg/mL	10 µg/mL	40 µg/mL	40 µg/mL	80 µg/mL	40 µg/mL	80 µg/mL	20 µg/mL	40 µg/mL	40 µg/mL	40 µg/mL	80 µg/mL	MIC (Aspergillus niger): 80 µg/mL; MIC (Penicillium funicolosum): > 80 µg/mL
CCCCCCCCCC[N+](C)(C)CCOC(=O)Cc1c(C)n(C(=O)c2ccc(Cl)cc2)c2ccc(OC)cc12 [RE 8, iodide of the ester of 2-N,N,N-dimethyl-decyl --amino-ethanol with 1-(p-chlorobenzoyl)-2-methyl-5-methoxy-3-indolyl-acetic acid]	31%	46%	≤ 5 µg/mL	≤ 5 µg/mL	10 µg/mL	10 µg/mL	10 µg/mL	10 µg/mL	10 µg/mL	> 80 µg/mL	> 80 µg/mL	80 µg/mL	80 µg/mL	80 µg/mL	80 µg/mL	≤ 5 µg/mL	≤ 5 µg/mL	≤ 5 µg/mL	≤ 5 µg/mL	≤ 5 µg/mL	Irritation degree 4h (rat subcutaneous tissue): 2; Irritation degree 24h (rat subcutaneous tissue): 2; mortality at 336 h (in vivo; 7.8 mg/kg): 0%; mortality at 336 h (in vivo; 15.6 mg/kg): 0%; mortality at 336 h (in vivo; 31.2 mg/kg): 100%; mortality at 336 h (in vivo; 62.5 mg/kg): 100%; mortality at 336 h (in vivo; 125 mg/kg): 83.3%; mortality at 336 h (in vivo; 250 mg/kg): 100%; Mortality (mouse; 7.8 mg/kg): 0/6; Mortality (mouse; 31.2 mg/kg): 6/6; Mortality (mouse; 62.5 mg/kg): 6/6; Mortality (mouse; 125 mg/kg): 5/6; Mortality (mouse; 250 mg/kg): 6/6; MIC (Aspergillus niger): ≤ 5 µg/mL; MIC (Penicillium funicolosum): ≤ 5 µg/mL; Percent increase in response with respect to controls (rat peritoneum): 97%
CCCCCCCCCCCC[N+](C)(C)CCOC(=O)Cc1c(C)n(C(=O)c2ccc(Cl)cc2)c2ccc(OC)cc12 [RE 9, iodide of the ester of 2-N,N,N-dimethyl-dodecyl, amino-ethanol with 1-(p-chlorobenzoyl)-2-methyl-5-methoxy-3-indolyl-acetic acid]	35%	40%	≤ 5 µg/mL	≤ 5 µg/mL	≤ 5 µg/mL	≤ 5 µg/mL	≤ 5 µg/mL	≤ 5 µg/mL	≤ 5 µg/mL	80 µg/mL	80 µg/mL	20 µg/mL	80 µg/mL	80 µg/mL	80 µg/mL	≤ 5 µg/mL	≤ 5 µg/mL	≤ 5 µg/mL	≤ 5 µg/mL	≤ 5 µg/mL	Irritation degree 4h (rat subcutaneous tissue): 2; Irritation degree 24h (rat subcutaneous tissue): 2; mortality at 336 h (in vivo; 31.2 mg/kg): 0%; mortality at 336 h (in vivo; 62.5 mg/kg): 83.3%; mortality at 336 h (in vivo; 125 mg/kg): 100%; mortality at 336 h (in vivo; 250 mg/kg): 83.3%; mortality at 336 h (in vivo; 500 mg/kg): 100%; Mortality (mouse; 62.5 mg/kg): 5/6; Mortality (mouse; 125 mg/kg): 6/6; Mortality (mouse; 250 mg/kg): 5/6; Mortality (mouse; 500 mg/kg): 6/6; MIC (Aspergillus niger): ≤ 5 µg/mL; MIC (Penicillium funicolosum): ≤ 5 µg/mL; Percent increase in response with respect to controls (rat peritoneum): 95%
CC(C)Cc1ccc(C(C)C(=O)O)cc1 (stereo not drawn) [ibuprofen, Ibuprofen, reference compound]	60%	58%	–	–	–	–	–	–	–	–	–	–	–	–	–	–	–	–	–	–	–
